In paper PMC10707942, “Polyaromatic Bis(indolyl)methane Derivatives with Antiproliferative and Antiparasitic Activity” (Molecules, 2023):

What was measured:
[1] = test system: MRC-5 cell line (human lung fibroblast); experiment: Cytotoxicity in healthy cell line, alamarBlue assay; format: cell-based; conditions: MRC5, 72 h, error reported as σ
Method: (§1) The biological activity of the bis(indolyl)methane derivatives 2a–c were evaluated on in vitro models of parasites (T. brucei and L. major), human cancer cells (HeLa and HT-29) and human healthy cells (MRC-5). The toxicity of the BIM derivatives was determined through alamarBlue assay (for T. brucei and MRC-5) or MTT assay (for L. major), and the results are expressed as the concentration of the compound that reduces cell viability by 50% calculated through dose-response curves to give half maximal inhibitory concentration (IC50) (see Figures S7–S11).
MRC-5 cell line (human lung fibroblast) was grown in monolayer at 37 °C, 5% CO2 in DMEM medium (1 g/L glucose) supplemented with 10% hiFBS, 100 U/mL penicillin, […] streptomycin and 2 mM L-glutamine.
(§2) Cytotoxicity was measured in MRC-5, HeLa and HT-29 cell lines using alamarBlue® assay (ThermoFisher Scientific). The stock solutions of the compounds were prepared in DMSO, and the final DMSO percentage in each well was adjusted to be less than 1%. A total of 5 × 10^3 cells per mL (MRC-5, HeLa or HT-29 cells) were seeded in 96-well plates (100 μL/well) with 24 h of incubation time before compound addition at 37 °C, 5% CO2. Then, the compounds were added at increasing concentrations (from 0 to 100 μM), and the plates were incubated for 72 h. A total of 20 μL of resazurin solution (110 ng/mL) was added to each well, and cells were incubated for 4 h. Then, cells were lysed with 50 μL/well of 3% SDS. The plate was incubated at 37 °C for an extra hour; then, the fluorescence intensity was measured with the Infinite F200 plate reader (TECAN Austria, GmbH), exciting at 550 nm and recording the emission at 590 nm. The results are expressed as the concentration of compound that reduces cell growth by 50% versus untreated control cells (IC50). Data are presented as the average of at least three independent measurements all conducted in triplicate.

L. major = experiment: Leishmanicidal activity, MTT-based assay; format: cell-based, Leishmania major; conditions: for IC50: Leishmania major, promastigotes, 72 h, MTT, error reported as σ; for Selectivity Index (SI) L. major: SI = IC50 MRC-5/IC50 L. major
Method: as §1
L. major (MHOM/IL/80/Friedlin) promastigotes were cultured at 28 °C, 5% CO2 in modified RPMI-1640 medium (Invitrogen, Carlsbad, CA, USA) supplemented with 10% hiFBS [45]. Parasites were maintained in culture in their experimental growth phase (below 2 million parasites per mL for T. brucei and 10 million parasites per mL for L. major).
The leishmanicidal activity of the compounds was determined using MTT-based assay (Sigma-Aldrich, St. Louis, MO, USA). The stock solutions of the compounds were prepared in DMSO, and the final DMSO percentage in each well was adjusted to be less than 1%. A total of 4 × 10^6 parasites per mL were incubated at 28 °C in 96-well plates (50 μL/well) alone or in the presence of an increasing concentration of compounds DMSO for 72 h. A total of 10 μL of MTT (5 mg/mL) was added to each well, and parasites were incubated for 4 h at 28 °C. Finally, cells were lysed with 50 μL/well of 20% SDS. The plate was incubated at 37 °C for an extra hour; then, the absorbance was measured with the Infinite F200 plate reader (TECAN Austria, GmbH, Grödig, Austria) at a wavelength of 540 nm. The IC50 was calculated as described above. Data are presented as the average of at least three independent measurements all conducted in triplicate.

[2] = test system: HeLa (human cervical carcinoma); experiment: Cytotoxicity in cancer cell line, alamarBlue assay; format: cell-based; conditions: for IC50: Homo sapiens, HeLa, 72 h, alamarBlue, error reported as σ; for Selectivity Index (SI) HeLa: SI = IC50 MRC-5/IC50 HeLa
Method: (§3) HeLa (human cervical carcinoma) and HT-29 (human colorectal adenocarcinoma) cell lines were maintained at 37 °C, 5% CO2 in high glucose DMEM (4.5 g/L glucose) supplemented with 10% hiFBS, 100 U/mL penicillin, […] streptomycin, 2 mM L-glutamine and non-essential amino acids (1X). Cells were plated and passaged according to ATCC recommendations and were used for the experiments while in the exponential growth phase.
as §2

[3] = test system: HT-29 (human colorectal adenocarcinoma); experiment: Cytotoxicity in cancer cell line, alamarBlue assay; format: cell-based; conditions: for IC50: Homo sapiens, HT-29, 72 h, alamarBlue, error reported as σ; for Selectivity Index (SI) HT-29: SI = IC50 MRC-5/IC50 HT-29
Method: as §3, §2

T. brucei = experiment: Trypanocidal activity, alamarBlue assay; format: cell-based, Trypanosoma brucei; conditions: for IC50: Trypanosoma brucei, 72 h, alamarBlue, error reported as σ; for Selectivity Index (SI) T. brucei: SI = IC50 MRC-5/IC50 T. brucei
Method: The trypanocidal activity of the compounds was assessed using the alamarBlue® assay (ThermoFisher Scientific, Waltham, MA, USA). […] Finally, cells were lysed with 50 μL per well of SDS 3%. The plate was incubated at 37 °C for an extra hour; then, the fluorescence intensity was measured with an Infinite F200 plate reader (Tecan Austria, GmbH, Grödig, Austria), exciting at 550 nm and recording the emission at 590 nm. The results are expressed as the concentration of the compound that reduces cell growth by 50% versus untreated control cells (IC50). Data are presented as the average of at least three independent measurements all conducted in triplicate.

HT-29 cell line = test system: HT-29 cell line; parameters: method as in PMID 30715794; conditions: cited from earlier work
Leishmania donovani = test system: Leishmania donovani; parameters: method as in PMID 18703668, PMID 17922678; conditions: cited from earlier work

SMILES | IC50 [1] | IC50 (L. major) | IC50 [2] | Selectivity Index (SI) HeLa [2] | IC50 [3] | Selectivity Index (SI) HT-29 [3] | IC50 (T. brucei) | IC50 (HT-29 cell line) | IC50 (Leishmania donovani) | Selectivity Index (SI) L. major (L. major) | Selectivity Index (SI) T. brucei (T. brucei)
Oc1cccc2ccc(C(c3c[nH]c4ccccc34)c3c[nH]c4ccccc34)nc12 [Compound 2c] | 3.25 ± 0.29 µM | 20.7 ± 1.71 µM | 28.3 ± 5.01 µM | 0.11 | 71.4 ± 3.99 µM | 0.05 | 14.66 ± 0.05 µM |  |  |  | 
c1ccc2c(Cc3c[nH]c4ccccc34)c[nH]c2c1 [Arundine, 3,3-diindolylmethane] |  |  |  |  |  |  |  | > 100 µM | 1.2 µM |  | 
c1ccc(N(c2ccccc2)c2ccc(C(c3c[nH]c4ccccc34)c3c[nH]c4ccccc34)cc2)cc1 [Compound 2a] | 33.7 ± 3.19 µM | 3.3 ± 0.25 µM | 37.5 ± 1.86 µM | 0.90 | 3.93 ± 0.49 µM | 8.57 | 3.21 ± 0.04 µM |  |  | 10.21 | 10.50
CN(C)c1ccc(C(c2c[nH]c3ccccc23)c2c[nH]c3ccccc23)c2ccccc12 [Compound 2b] | 94.9 ± 7.27 µM | > 100 µM | 89.56 ± 0.15 µM | 1.06 | 25.4 ± 5.23 µM | 3.73 | 16 ± 4.44 µM |  |  | <0.95 | 5.93
